Converted amounts (≈) assume the structure as drawn. Like-named read-outs stand apart in the source and are kept apart here.
Legend:
[1] = test system: Streptococcus sp. 80; experiment: in vitro tube dilution test (MIC); format: cell-based; settings: Streptococcus sp. 80, tube dilution; read-out: MIC
Excerpt: (§1) Other compounds of our invention have also been tested in the tube dilution test and shown to have in vitro activity against a number of microorganisms. The table below reports tests of a number of exemplary compounds against exemplary microorganisms. The compounds are identified by their numbers in the listing above. The data are reported as the MIC in micrograms per milliliter against the named exemplary microorganisms.

[2] = test system: Escherichia coli; experiment: in vitro tube dilution test (MIC); format: cell-based; settings: tube dilution, read-out: MIC
Excerpt: (§2) Our compound, 1-(2-hydroxyethyl)-3-nitro-4-pyrazolecarboxamide, has been extensively tested in vitro to determine the range of microorganisms against which it is active. The table of data below reports the minimum inhibitory concentration (MIC) at which the compound is effective in controlling a variety of microorganisms in a standard tube dilution test system. The MIC is reported as micrograms of compound per milliliter.
as §1

[3] = test system: Mycoplasma gallisepticum; experiment: in vitro tube dilution test (MIC); format: cell-based; settings: Mycoplasmoides gallisepticum; Mycoplasma gallisepticum, tube dilution; read-out: MIC
Excerpt: as §2, §1

[4] = test system: Salmonella dublin; experiment: in vitro tube dilution test (MIC); format: cell-based; settings: Salmonella enterica; Salmonella dublin, tube dilution; read-out: MIC
Excerpt: (§3) The other preferred compounds of our invention have also been thoroughly tested in the in vitro tube dilution test.
as §1

[5] = test system: Staphylococcus aureus sp. 1130; experiment: in vitro tube dilution test (MIC); format: cell-based; settings: read-out: MIC
Excerpt: as §3, §1

[6] = test system: Vibrio coli 3811; experiment: in vitro tube dilution test (MIC); format: cell-based; settings: Campylobacter coli; Vibrio coli 3811, tube dilution; read-out: MIC
Excerpt: as §3, §1

[7] = test system: Salmonella typhimurium; experiment: Salmonellosis in chickens, single injection to day-old chicks; format: in vivo
Method: A number of our 3-nitropyrazoles have been tested against an induced infection of Salmonella typhimurium in day-old chicks. The test was conducted by administering a single injection of 60 mg./kg. of the compounds to each of five chicks. The following day, the chicks were challenged by the subcutaneous injection of a dispersion of S. typhimurium organisms sufficient to kill most or all of the untreated control chicks.
Some of the compounds were tested more than once, in which instances the data are reported as the total survivors from the multiple treatment groups. Untreated, challenged control groups of chicks were tested together with each batch of groups of chicks to which test compounds were administered. Since the mortality of the untreated control chicks varied somewhat from one group of tests to another, results of the untreated control groups are reported below with each test.

[8] = test system: H. meleagridis; experiment: Blackhead in poultry, chicks; format: in vivo
Method: (§4) One- to three-week-old chicks and turkey poults were obtained from homogeneous source flocks and allocated into treatment groups. Some groups were held as infected, untreated controls, and other groups were treated with 3-nitropyrazoles by administering the compounds in the birds' feed. Various concentrations of the pyrazoles were administered to determine the least concentration which protected the birds. A few days after the administration of medicated feed began, all of the birds were challenged by rectally administering a suspension of at least 5,000 H. meleagridis protozoa per chick. The challenge organisms had been originally obtained from infected chickens, and were grown in vitro to provide a supply of organisms for testing.
(§5) The birds were held for about seven days after the challenge was administered, during which time the administration of pyrazole-medicated feed was continued. Then all of the chicks, including the untreated, infected controls, were sacrificed and necropsied. The cecum and the liver of each bird were examined for characteristic H. meleagridis lesions.
(§6) For each compound, the lowest feed concentration which gave an active response is indicated. While feed consumption data were not taken during the tests, the birds ate at such a rate that a feed concentration of 0.02 percent is equivalent to a treatment rate of about 10 mg./kg./day.

[9] = test system: Erwinia amylovora; experiment: Fire blight of pear, in vivo greenhouse test
Method: An in vivo test was conducted against the fire blight organism, Erwinia amylovora. Plants infected with E. amylovora were sprayed with aqueous dispersions containing 100 ppm. and 500 ppm. of the test compounds. […] The compounds are identified below by their compound numbers in the above listing.

[10] = test system: H. meleagridis; experiment: Blackhead in poultry, turkeys; format: in vivo
Method: as §4, §5, §6

[11] = test system: Pasteurella multocida; experiment: in vitro tube dilution test (MIC); format: cell-based; settings: tube dilution, read-out: MIC
Excerpt: as §2, §3, §1

[12] = test system: avian E. coli; experiment: Colibacillosis in chickens, medicated feed; format: in vivo; settings: 300 gm./ton feed; about 5 weeks old; 10^-2 dilution challenge; first test
[13] = test system: Pseudomonas sp.; experiment: in vitro tube dilution test (MIC); format: cell-based
Excerpt: as §2, §3

[14] = test system: Mycoplasma hyorhinis; experiment: in vitro tube dilution test (MIC); format: cell-based
Excerpt: as §2, §3

[15] = test system: E. coli; experiment: Tests in mice, E. coli infection; format: in vivo
Method: (§7) Groups of laboratory mice were inoculatd with E. coli or with Streptococcus pyogenes. The 3-nitropyrazoles were administered in two different modes to the infected mice. In one group of tests, the compound was administered in two subcutaneous doses of 83 mg./kg. each, given 1 and 5 hours after the mice were inoculated with the organism. The mice were observed, and the results reported below as the number of days the treated mice survived the challenge.
(§8) In the other group of tests, the dose of each compound which allowed 50 percent of the treated mice to survive the challenge was determined. Again, the compound was administered in subcutane divided doses, 1 and 5 hours post-inoculation.

[16] = test system: Streptococcus pyogenes; experiment: Tests in mice, Streptococcus pyogenes infection; format: in vivo; settings: S. pyogenes, two subcutaneous doses of 83 mg./kg., 1 and 5 hours
Method: as §7, §8

[17] = test system: S. typhimurium; experiment: Salmonella typhimurium in chickens, medicated feed; format: in vivo, chicks; settings: Test C, 200 gm./ton feed
[18] = test system: Mycoplasma gallisepticum 38502; experiment: in vitro tube dilution test (MIC); format: cell-based; settings: Mycoplasmoides gallisepticum; Mycoplasma gallisepticum 38502, tube dilution
Excerpt: as §3

[19] = test system: Staphylococcus aureus 3055; experiment: in vitro tube dilution test (MIC); format: cell-based; settings: Staphylococcus aureus 3055, tube dilution
Excerpt: as §3

[20] = Staphylococcus aureus sp. 1130, tube dilution

MIC [1] [µg/mL]	MIC [2] [µg/mL]	MIC [3] [µg/mL]	MIC [4] [µg/mL]	MIC [5, 20] [µg/mL]	MIC [6] [µg/mL]	SMILES	Active Level (lowest feed concentration which gave an active response) [8]	Percent Control of fire blight ([9]; 100 ppm.) [%]	Percent Control of fire blight ([9]; 500 ppm.) [%]	Active Level (lowest feed concentration which gave an active response) [10]	other results
50 (≈ 208 µM)	50 (≈ 208 µM)	6.25 (≈ 26 µM)	50 (≈ 208 µM)	50 (≈ 208 µM)	25 (≈ 104 µM)	CNc1nnc(-c2cn(C)nc2[N+](=O)[O-])s1 [Compound 2, 2-(1-methyl-3-nitro-4-pyrazolyl)-5-methylamino-1,3,4-thiadiazole]	.02%	–	–	–	chicks protected of the 5-bird treated group ([7]; salmonella challenge): at least three chicks of the 5-bird treated group
100 (≈ 588 µM)	12.5 (≈ 73.5 µM)	50 (≈ 294 µM)	6.25 (≈ 36.7 µM)	12.5 (≈ 73.5 µM)	6.25 (≈ 36.7 µM)	Cn1cc(C(N)=O)c([N+](=O)[O-])n1 [Compound 3, 1-methyl-3-nitro-4-pyrazolecarboxamide]	.02%	25	75	–	–
–	–	–	–	–	–	NC(=O)c1cn(CCc2ccccc2)nc1[N+](=O)[O-] [Compound 17, 1-phenethyl-3-nitro-4-pyrazolecarboxamide]	.0067%	–	–	.02%	–

SMILES	MIC [1] [µg/mL]	MIC [2] [µg/mL]	MIC [3] [µg/mL]	MIC [4] [µg/mL]	MIC [5, 20] [µg/mL]	MIC [6] [µg/mL]	Active Level (lowest feed concentration which gave an active response) [8]	Percent Control of fire blight ([9]; 100 ppm.) [%]	Percent Control of fire blight ([9]; 500 ppm.) [%]	Active Level (lowest feed concentration which gave an active response) [10]	other results
CCOCCn1cc(C(N)=O)c([N+](=O)[O-])n1 [Compound 34, 1-(2-ethoxyethyl)-3-nitro-4-pyrazolecarboxamide]	–	–	–	25 (≈ 110 µM)	–	50 (≈ 219 µM)	–	33	66	.02%	MIC [11]: 25 µg/mL (≈ 110 µM); E. coli Lesions [12]: 11/30; Mortality [12]: 0/30; Wt. [12]: 1136 gm.; MIC [13]: 50 µg/mL (≈ 219 µM); MIC [14]: 50 µg/mL (≈ 219 µM); ED50 ([15]; Escherichia coli, sc, subcutaneous, 1 and 5 hours post-inoculation): > 41 mg/kg; Days Survived ([15]; two subcutaneous doses of 83 mg./kg., 1 and 5 hours): 7.0 days; MIC ([5]; Staphylococcus aureus, SP.1130, Staphyloccocus 1130, tube dilution): 6.25 µg/mL (≈ 27.4 µM); Days Survived [16]: 5.0 days; responders at 60 mg/kg ([7]; Salmonella enterica, TYPHIMURIUM, 168 h, single injection of 60 mg./kg., seven days, read-out: Survival (converted)): 40%; Survival [17]: 25/48; Avg. Wt. ([17]; surviving chicks): 62 gm.; MIC [18]: 50 µg/mL (≈ 219 µM); MIC [19]: 100 µg/mL (≈ 438 µM)
